Laboratory results taken from patent US20100317863A1, “Glucocorticoid Mimetics, Methods of Making Them, Pharmaceutical Compositions and Uses Thereof” (BOEHRINGER INGELHEIM INTERNATIONAL GMBH, priority 2007, published 2010).

What follows are molecules tested against T1, human glucocorticoid receptor (GR) complex (Homo sapiens, UniProt P04150) (assay: Glucocorticoid Receptor Competitive Binding Assay (fluorescence polarization)). Details: competition with TAMRA-labeled dexamethasone; potent activity.
T1 construct: made in house; host or cells: insect expression system (baculovirus lysate)
T1 sequence (P04150 1-777): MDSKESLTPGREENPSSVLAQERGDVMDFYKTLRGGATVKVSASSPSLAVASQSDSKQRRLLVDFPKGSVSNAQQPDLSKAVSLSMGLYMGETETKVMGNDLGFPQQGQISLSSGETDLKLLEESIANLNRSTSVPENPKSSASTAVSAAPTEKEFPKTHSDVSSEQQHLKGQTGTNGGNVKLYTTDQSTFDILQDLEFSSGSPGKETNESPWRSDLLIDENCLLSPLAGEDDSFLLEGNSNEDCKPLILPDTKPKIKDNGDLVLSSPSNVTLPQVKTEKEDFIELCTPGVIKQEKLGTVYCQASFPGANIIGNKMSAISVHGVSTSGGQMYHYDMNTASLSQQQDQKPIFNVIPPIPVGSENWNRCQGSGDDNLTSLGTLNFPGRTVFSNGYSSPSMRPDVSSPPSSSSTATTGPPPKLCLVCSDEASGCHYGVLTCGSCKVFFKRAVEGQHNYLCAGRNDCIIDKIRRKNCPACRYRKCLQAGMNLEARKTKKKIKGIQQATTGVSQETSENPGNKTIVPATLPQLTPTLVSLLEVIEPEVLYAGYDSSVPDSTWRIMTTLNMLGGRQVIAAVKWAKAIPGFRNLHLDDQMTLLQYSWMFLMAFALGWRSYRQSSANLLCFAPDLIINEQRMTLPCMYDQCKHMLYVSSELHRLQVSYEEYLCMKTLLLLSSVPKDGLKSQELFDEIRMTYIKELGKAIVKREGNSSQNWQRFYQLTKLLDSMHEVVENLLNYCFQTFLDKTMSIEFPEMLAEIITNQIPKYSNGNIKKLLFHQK
Protocol: Compounds of the invention were evaluated for binding to the steroid receptor by a fluorescence polarization competitive binding assay. Detailed descriptions for preparation of recombinant glucocorticoid receptor (GR) complex used in the assay is described in U.S. Patent Application Publication No. US 2003/0017503, filed May 20, 2002, and incorporated herein by reference in its entirety. Preparation of the tetramethylrhodamine (TAMRA)-labeled dexamethasone probe was accomplished using a standard literature procedure (M. Pons et al., J. Steroid Biochem., 1985, 22, pp. 267-273).
This assay uses fluorescence polarization (FP) to quantitate the ability of test compounds to compete with tetramethylrhodamine (TAMRA)-labeled dexamethasone for binding to a human glucocorticoid receptor (GR) complex prepared from an insect expression system. The assay buffer was: 10 mM TES, 50 mM KCl, 20 mM Na2MoO4.2H2O, 1.5 mM EDTA, 0.04% w/v CHAPS, 10% v/v glycerol, 1 mM dithiothreitol, pH 7.4. Test compounds were dissolved to 1 mM in neat DMSO and then further diluted to 10× assay concentration in assay buffer supplemented with 10% v/v DMSO. Test compounds were serially diluted at 10× assay concentrations in 10% DMSO-containing buffer in 96-well polypropylene plates. Binding reaction mixtures were prepared in 96-well black Dynex microtiter plates by sequential addition of the following assay components to each well: 15 μL of 10× test compound solution, 85 μL of GR-containing baculovirus lysate diluted 1:170 in assay buffer, and 50 μL of 15 nM TAMRA-labeled dexamethasone. Positive controls were reaction mixtures containing no test compound; negative controls (blanks) were reaction mixtures containing 0.7 μM to 2 μM dexamethasone. The binding reactions were incubated for 1 hour at room temperature and then read for fluorescence polarization in the LJL Analyst set to 550 nm excitation and 580 nm emission, with the Rhodamine 561 dichroic mirror installed. IC50 values were determined by iterative non-linear curve fitting of the FP signal data to a 4-parameter logistic equation.

IC50, ≤ 100 nM:
Cc1cc(C)c(S(=O)(=O)N[C@@H](C)Cn2cc(C#N)c3cc(F)ccc32)c(N)c1 [2-Amino-N—[(S)-2-(3-cyano-5-fluoroindol-1-yl)-1-methylethyl]-4,6-dimethylbenzenesulfonamide]
Cc1cc(C)c(S(=O)(=O)N(C)[C@@H](C)Cn2cc(C#N)c3cccc(F)c32)c(N)c1 [2-Amino-N—[(S)-2-(3-cyano-7-fluoroindol-1-yl)-1-methylethyl]-4,6,N-trimethylbenzenesulfonamide]
Cc1cc(C)c(S(=O)(=O)N[C@@H](C)Cn2cc(C#N)c3ccccc32)c(N)c1 [2-Amino-N—[(S)-2-(3-cyanoindol-1-yl)-1-methylethyl]-4,6-dimethylbenzenesulfonamide]
Cc1cc(C)c(S(=O)(=O)N[C@@H](C)Cn2cc(CC#N)c3cc(F)ccc32)c(N)c1 [2-Amino-N—[(S)-2-(3-cyanomethyl-5-fluoroindol-1-yl)-1-methylethyl]-4,6-dimethylbenzenesulfonamide]
Cc1cc(C)c(S(=O)(=O)N[C@@H](C)Cn2cc(CC#N)c3cccc(F)c32)c(N)c1 [2-Amino-N—[(S)-2-(3-cyanomethyl-7-fluoroindol-1-yl)-1-methylethyl]-4,6-dimethylbenzenesulfonamide]
Cc1cc(C)c(S(=O)(=O)N[C@@H](C)Cn2cc(CC#N)c3ccccc32)c(N)c1 [2-Amino-N—[(S)-2-(3-cyanomethylindol-1-yl)-1-methylethyl]-4,6-dimethylbenzenesulfonamide]
Cc1cc(C)c(S(=O)(=O)N[C@@H](C)Cn2cc(C)c3cccc(F)c32)c(N)c1 [2-Amino-N—[(S)-2-(7-fluoro-3-methylindol-1-yl)-1-methylethyl]-4,6-dimethylbenzenesulfonamide]
CC[C@@H](Cn1cc(C)c2ccccc21)NS(=O)(=O)c1c(C)cc(C)cc1Br [2-Bromo-4,6-dimethyl-N—[(S)-1-(3-methylindol-1-ylmethyl)propyl]benzenesulfonamide]
CC[C@@H](Cn1cc(C#N)c2cc(F)ccc21)NS(=O)(=O)c1c(Cl)cc(-c2ccc(N(C)C)cc2)cc1Cl [3,5-Dichloro-4′-dimethylaminobiphenyl-4-sulfonic acid [(S)-1-(3-cyano-5-fluoroindol-1-ylmethyl)propyl]amide]
CC[C@@H](Cn1cc(C#N)c2cc(F)ccc21)NS(=O)(=O)c1c(Cl)cc(Br)cc1Cl [4-Bromo-2,6-dichloro-N—[(S)-1-(3-cyano-5-fluoroindol-1-ylmethyl)propyl]benzenesulfonamide]
Cc1cc(C)c(S(=O)(=O)NC(Cn2ccc3ccccc32)C(C)(C)C)c(C)c1 (stereo not shown) [N-(1-Indol-1-ylmethyl-2,2-dimethylpropyl)-2,4,6-trimethylbenzenesulfonamide]
Cc1cc(C)c(S(=O)(=O)NC(Cn2ccc3ccccc32)C(C)C)c(C)c1 (stereo not shown) [N-(1-Indol-1-ylmethyl-2-methylpropyl)-2,4,6-trimethylbenzenesulfonamide]
Cc1cc(C)c(S(=O)(=O)NC(CN2CCCc3ccccc32)C(C)C)c(C)c1 (stereo not shown) [N-[1-(3,4-Dihydro-2H-quinolin-1-ylmethyl)-2-methylpropyl]-2,4,6-trimethylbenzenesulfonamide]
CC[C@@H](Cn1cc(Br)c2cccnc21)NS(=O)(=O)c1c(C)cc(C)cc1C [N—[(S)-1-(3-Bromopyrrolo[2,3-b]pyridin-1-ylmethyl)propyl]-2,4,6-trimethylbenzenesulfonamide]
CC[C@@H](Cn1c(C)c(C#N)c2ccccc21)NS(=O)(=O)c1c(C)cc(C)cc1C [N—[(S)-1-(3-Cyano-2-methylindol-1-ylmethyl)propyl]-2,4,6-trimethylbenzenesulfonamide]
CC[C@@H](Cn1cc(C#N)c2cc(F)ccc21)NS(=O)(=O)c1c(C)cc(C)cc1C [N—[(S)-1-(3-Cyano-5-fluoroindol-1-ylmethyl)propyl]-2,4,6-trimethylbenzenesulfonamide]
CC[C@@H](Cn1cc(C#N)c2ccccc21)NS(=O)(=O)c1c(C)cc(C)cc1C [N—[(S)-1-(3-Cyanoindol-1-ylmethyl)propyl]-2,4,6-trimethylbenzenesulfonamide]
CC[C@@H](Cn1cc(CC#N)c2ccccc21)NS(=O)(=O)c1c(C)cc(C)cc1C [N—[(S)-1-(3-Cyanomethylindol-1-ylmethyl)propyl]-2,4,6-trimethylbenzenesulfonamide]
CC[C@@H](Cn1c(C)cc2cc(Cl)ccc21)NS(=O)(=O)c1c(C)cc(C)cc1C [N—[(S)-1-(5-Chloro-2-methylindol-1-ylmethyl)propyl]-2,4,6-trimethylbenzenesulfonamide]
CC[C@@H](Cn1cc(C=O)c2cc(F)ccc21)NS(=O)(=O)c1c(C)cc(C)cc1C [N—[(S)-1-(5-Fluoro-3-formylindol-1-ylmethyl)propyl]-2,4,6-trimethylbenzenesulfonamide]
CC[C@@H](CN1CCCc2cc(Br)ccc21)NS(=O)(=O)c1c(C)cc(C)cc1C [N—[(S)-1-(6-Bromo-3,4-dihydro-2H-quinolin-1-ylmethyl)propyl]-2,4,6-trimethylbenzenesulfonamide]
CC[C@@H](CN1CCCc2cc(C#N)ccc21)NS(=O)(=O)c1c(C)cc(C)cc1C [N—[(S)-1-(6-Cyano-3,4-dihydro-2H-quinolin-1-ylmethyl)propyl]-2,4,6-trimethylbenzenesulfonamide]
